Key:
Type in all cases: cell-based
Prostate Cancer Growth = test: SAR studies using inhibition of prostate cancer growth as a readout; conditions: SAR by substituent position
mTORC = test: Phosphorylation of mTORC substrates in PANC1 cells (Western blot); conditions: overnight incubation, FIG. 19
Protocol: Immunoblotting: Western blots were performed as described previously. Briefly, protein lysates (30 μg) were subjected to SDS-PAGE and transferred to nitrocellulose membranes. After blocking with 5% milk in TBST buffer for 30 min at room temperature, the membranes were incubated overnight at 4° C. with the Indicated primary antibody in 3% BSA in TBST. Specific proteins were detected with the corresponding HRP conjugated secondary antibody using enhanced chemiluminescence (GE Lifesciences, Piscataway, NJ).
(§1) Because of ease of growth, PANC1 pancreatic cancer cells were used to test the activity of derivatives of VBT-5445 (FIG. 14). […] Using a doxycycline inducible Pim kinase vector in these tumor cells, this inhibition of phosphorylation was proportional to the level of Pim in these cells (FIG. 9). […] Inhibition of mTORC1 is known to stimulate the feedback activation of mTORC2 leading to AKT phosphorylation. […] The effect of these compounds on mTORC1 and 2 was still evident in PC3-LN4 cells that contained a knockout (KO) using CRISPR/CAS9 of either TSC2 or DEPDC5 (FIG. 12, lanes 4-9). TSC2 KO activated the Rheb GTPase while DEPDC5 KO activated the RAG GTPase both of which stimulate mTORC1 activity. Thus, GRG compounds were capable of inhibiting mTORC1 activity even when this kinase was highly activated.

[1] = test system: PANC1 pancreatic cancer cells; test: Growth inhibition of PANC1 pancreatic cancer cells
Protocol: Cell growth assay: Tumor cells were seeded into 48 well plates (1000 cells/well) and treated with varied agents. The Incucyte real-time imaging system (Incucyte) was used to measure cell proliferation using a non-label cell monolayer confluence approach. The images were captured every 12 h. Graphs were generated using an integrated confluence metric as an alternative for cell numbers. At the end of the study cell growth was visualized by crystal violet staining.
as §1

PANC1 cells = test: Reverse-phase protein array (RPPA) of PANC1 cells, Table 3; conditions: 6 h treatment, divided by zero-time value, average of triplicate
Protocol: To further examine how these compounds function to inhibit tumor growth, changes in both a wide variety of phosphoprotein and protein levels using reverse-phase protein arrays (RPPA) were evaluated. […] The values in the RPPA obtained at these two time points were divided by the value at time zero to allow an evaluation of the changes caused by each drug treatment.

COc1ccc(CNCc2cc3ccc(Cl)cc3n(CCOc3ccccc3)c2=O)nc1 [GRG-1-27]
Activity (inhibition of prostate cancer growth) (Prostate Cancer Growth): 2 active compounds

O=c1c(CNCc2ccc(C(F)(F)F)cn2)cc2ccc(Cl)cc2n1CCOc1ccccc1 [GRG-1-28]
Activity (inhibition of prostate cancer growth) (Prostate Cancer Growth): 2 active compounds

Cc1cccc(CNCc2cc3ccc(Cl)cc3n(CCOc3ccccc3)c2=O)n1 [GRG-1-31]
block of phosphorylation of mTORC substrates (AKT, 4E-BP1, S6) (mTORC): block the phosphorylation of mTORC substrates
growth inhibitory activity against PANC1 pancreatic cancer cells [1]: most active

O=c1c(COCc2ccccc2)cc2ccc(Cl)cc2n1CCOc1ccccc1 [GRG-1-60]
Activity (inhibition of prostate cancer growth) (Prostate Cancer Growth): Contributes to loss of activity
block of phosphorylation of mTORC substrates (AKT, 4E-BP1, S6) (mTORC): not
growth inhibitory activity against PANC1 pancreatic cancer cells [1]: inactive

CN(Cc1ccccn1)Cc1cc2ccc(Cl)cc2n(CCOc2ccccc2)c1=O [GRG-1-61]
Activity (inhibition of prostate cancer growth) (Prostate Cancer Growth): Reduces activity to some extent

O=c1c(COCc2ccccn2)cc2ccc(Cl)cc2n1CCOc1ccccc1 [GRG-1-63]
Activity (inhibition of prostate cancer growth) (Prostate Cancer Growth): Contributes to loss of activity

COc1ccc(OCCn2c(=O)c(CNCc3ccccn3)cc3ccc(Cl)cc32)cc1 [GRG-1-70]
Activity (inhibition of prostate cancer growth) (Prostate Cancer Growth): Brings activity, though 4-chloro

O=C(NCc1cc2ccc(Cl)cc2n(CCOc2ccccc2)c1=O)c1ccccn1 [GRG-1-94, N-((7-chloro-2-oxo-1-(2-phenoxyethyl)-1,2-dihydroquinolin-3-yl)methyl) picolinamide]
block of phosphorylation of mTORC substrates (AKT, 4E-BP1, S6) (mTORC): not
growth inhibitory activity against PANC1 pancreatic cancer cells [1]: inactive

COc1ccnc(CNCc2cc3ccc(Cl)cc3n(CCOc3ccccc3)c2=O)c1 [GRG-1-95]
Activity (inhibition of prostate cancer growth) (Prostate Cancer Growth): 6 active compounds

Cc1ccnc(CNCc2cc3ccc(Cl)cc3n(CCOc3ccccc3)c2=O)c1 [GRG-1-96]
Activity (inhibition of prostate cancer growth) (Prostate Cancer Growth): 6 active compounds

O=c1c(CNCc2ccccn2)cc2ccc(Cl)cc2n1CCSc1ccccc1 [GRG-1-104, 7-chloro-1-(2-(phenylthio)ethyl)-3-(((pyridin-2-ylmethyl)amino)methyl)quinolin-2 (1H)-one]
Activity (inhibition of prostate cancer growth) (Prostate Cancer Growth): Active
block of phosphorylation of mTORC substrates (AKT, 4E-BP1, S6) (mTORC): block the phosphorylation of mTORC substrates
growth inhibitory activity against PANC1 pancreatic cancer cells [1]: most active

COc1ccc(OCCn2c(=O)c(CNCc3cc(C(F)(F)F)ccn3)cc3ccc(Cl)cc32)cc1 [GRG-1-127]
Activity (inhibition of prostate cancer growth) (Prostate Cancer Growth): Brings activity, though 4-chloro

COc1ccc(OCCn2c(=O)c(CNCc3cc(Br)ccn3)cc3ccc(Cl)cc32)cc1 [GRG-1-166]
Activity (inhibition of prostate cancer growth) (Prostate Cancer Growth): Brings activity, though 4-chloro

COc1ccc(OCCn2c(=O)c(CNCc3cc(Cl)ccn3)cc3ccc(Cl)cc32)cc1 [GRG-1-167]
Activity (inhibition of prostate cancer growth) (Prostate Cancer Growth): substitution decreases activity

O=c1c(CNCc2cc(Br)ccn2)cc2ccc(N3CCOCC3)cc2n1CCOc1ccccc1 [GRG-02-24]
Activity (inhibition of prostate cancer growth) (Prostate Cancer Growth): Contributes to loss of activity

O=c1c(CNCc2cccc(Br)n2)cc2ccc(Cl)cc2n1CCOc1ccccc1 [ZH-2-44]
Activity (inhibition of prostate cancer growth) (Prostate Cancer Growth): 1 active compound (methoxy)

O=c1c(CNCc2ncccc2F)cc2ccc(Cl)cc2n1CCOc1ccccc1 [ZH-2-50]
Activity (inhibition of prostate cancer growth) (Prostate Cancer Growth): Less active

CC(C)n1nc(-c2cc3cc(O)ccc3[nH]2)c2c(N)ncnc21 [pp242, reference compound]
4EBP1S65, RPPA value after treatment / zero-time value (PANC1 cells): 0.22
4EBP1T70, RPPA value after treatment / zero-time value (PANC1 cells): 0.32
ATMS1981, RPPA value after treatment / zero-time value (PANC1 cells): 0.46
CICaspase3D175, RPPA value after treatment / zero-time value (PANC1 cells): 0.7
CofilinS3, RPPA value after treatment / zero-time value (PANC1 cells): 0.6
CrkIIY221, RPPA value after treatment / zero-time value (PANC1 cells): 1.57
ERKT202_Y204, RPPA value after treatment / zero-time value (PANC1 cells): 2.04
FAKY576_577, RPPA value after treatment / zero-time value (PANC1 cells): 0.81
FKHR-FOX01S256, RPPA value after treatment / zero-time value (PANC1 cells): 1.03
GSK3a_bS21_9, RPPA value after treatment / zero-time value (PANC1 cells): 1.09
HistoneH2AXS139, RPPA value after treatment / zero-time value (PANC1 cells): 1.19
HistoneH3S10, RPPA value after treatment / zero-time value (PANC1 cells): 0.64
IL-1bcleavedD116, RPPA value after treatment / zero-time value (PANC1 cells): 0.46
Jak1Y1022_1023, RPPA value after treatment / zero-time value (PANC1 cells): 0.71
MAPKpTEpY, RPPA value after treatment / zero-time value (PANC1 cells): 0.64
PDGFRbY751, RPPA value after treatment / zero-time value (PANC1 cells): 0.67
PP1aT320, RPPA value after treatment / zero-time value (PANC1 cells): 0.61
PaxillinY118, RPPA value after treatment / zero-time value (PANC1 cells): 0.9
RetY905, RPPA value after treatment / zero-time value (PANC1 cells): 0.25
S6RibosomalPS235_236, RPPA value after treatment / zero-time value (PANC1 cells): 0.34
S6RibosomalProtein S240_244, RPPA value after treatment / zero-time value (PANC1 cells): 0.66
SAPK_JNKT183_Y185, RPPA value after treatment / zero-time value (PANC1 cells): 1.07
Stat2Y690, RPPA value after treatment / zero-time value (PANC1 cells): 0.76
Stat3Y705, RPPA value after treatment / zero-time value (PANC1 cells): 0.51
Tyk2Y1054_1055, RPPA value after treatment / zero-time value (PANC1 cells): 0.51
VEGFR2Y1175, RPPA value after treatment / zero-time value (PANC1 cells): 0.34
YAPS127, RPPA value after treatment / zero-time value (PANC1 cells): 0.76
cAbIY245, RPPA value after treatment / zero-time value (PANC1 cells): 1.54
cKitY703, RPPA value after treatment / zero-time value (PANC1 cells): 1.09
p38MAPKT180_Y182, RPPA value after treatment / zero-time value (PANC1 cells): 0.59
p70S6KS371, RPPA value after treatment / zero-time value (PANC1 cells): 0.39
p70S6KT389, RPPA value after treatment / zero-time value (PANC1 cells): 0.29
p90RSKS380, RPPA value after treatment / zero-time value (PANC1 cells): 0.91

From patent US20250129045A1, “SMALL MOLECULE PIM AND MTOR KINASE INHIBITOR AND METHODS OF USE THEREOF” (Arizona Board of Regents on Behalf of the University of …, priority 2022, published 2025)
